Laboratory results reported in the supplement of paper PMC10307832.

Tests used:
Experiment in all cases: relative viability (nuclei count vs DMSO), 5 days (fraction); higher = more cells survive
A-427 = tested on: A-427
Method in brief: (§1)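 For relative viability, nuclei counts in treated wells were divided by those in vehicle wells. Lung cancer cell lines had been pin-tool dosed in 1536-well plates the day after seeding and cultured for 5 days, then fixed and stained in one step (final 0.05% Triton X-100, 1% formaldehyde, 1 ug/ml Hoechst) and imaged at 4×. Doses were one drug alone or a fixed anchor-drug dose plus five library-drug doses (not always all listed) in √10 steps, and values are duplicate-plate medians.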

NCI-H1915 = tested on: NCI-H1915
Method in brief: as §1

LOU-NH91 = tested on: LOU-NH91
Method in brief: as §1

HCC-366 = tested on: HCC-366
Method in brief: as §1

COR-L23 = tested on: COR-L23
Method in brief: as §1

HCC-44 = tested on: HCC-44
Method in brief: as §1

NCI-H838 = tested on: NCI-H838
Method in brief: as §1

NCI-H3122 = tested on: NCI-H3122
Method in brief: as §1

NCI-H2023 = tested on: NCI-H2023
Method in brief: as §1

NCI-H1395 = tested on: NCI-H1395
Method in brief: as §1

NCI-H596 = tested on: NCI-H596
Method in brief: as §1

ChaGo-K-1 = tested on: ChaGo-K-1
Method in brief: as §1

NCI-H650 = tested on: NCI-H650
Method in brief: as §1

HCC-78 = tested on: HCC-78
Method in brief: as §1

SK-MES-1 = tested on: SK-MES-1
Method in brief: as §1

NCI-H1650 = tested on: NCI-H1650
Method in brief: as §1

EKVX = tested on: EKVX
Method in brief: as §1

EPLC-272H = tested on: EPLC-272H
Method in brief: as §1

HOP-62 = tested on: HOP-62
Method in brief: as §1

NCI-H661 = tested on: NCI-H661
Method in brief: as §1

NCI-H2087 = tested on: NCI-H2087
Method in brief: as §1

NCI-H1734 = tested on: NCI-H1734
Method in brief: as §1

NCI-H358 = tested on: NCI-H358
Method in brief: as §1

O=C(O)CCCCC(CCSCc1ccccc1)SCc1ccccc1 (centres undefined) [CPI-613] + N=C(N)NC(=N)NCCc1ccccc1 [Phenformin] (partner 250 µM) gave a relative viability (A-427; first compound 5 µM) of 0.279, a relative viability (A-427; first compound 15.81 µM) of 0.255 and a relative viability (A-427; first compound 50 µM) of 0.267. The relative viability (A-427; first compound 158.11 µM) was 0.178, the relative viability (A-427; first compound 500 µM) was 0.1 and the relative viability (NCI-H1915; first compound 5 µM) was 0.374. For the same compound, the relative viability (NCI-H1915; first compound 15.81 µM) was 0.372, the relative viability (NCI-H1915; first compound 50 µM) was 0.354 and the relative viability (NCI-H1915; first compound 158.11 µM) was 0.339. It also gave a relative viability (NCI-H1915; first compound 500 µM) of 0.0398, a relative viability (LOU-NH91; first compound 5 µM) of 0.784 and a relative viability (LOU-NH91; first compound 15.81 µM) of 0.591. For the same compound, the relative viability (LOU-NH91; first compound 50 µM) was 0.652, the relative viability (LOU-NH91; first compound 158.11 µM) was 0.504 and the relative viability (LOU-NH91; first compound 500 µM) was 0.526. The relative viability (HCC-366; first compound 5 µM) was 0.554, the relative viability (HCC-366; first compound 15.81 µM) was 0.567 and the relative viability (HCC-366; first compound 50 µM) was 0.651. The relative viability (HCC-366; first compound 158.11 µM) was 0.239, the relative viability (HCC-366; first compound 500 µM) was 0.0045 and the relative viability (COR-L23; first compound 5 µM) was 0.438. For the same compound, the relative viability (COR-L23; first compound 15.81 µM) was 0.393, the relative viability (COR-L23; first compound 50 µM) was 0.475 and the relative viability (COR-L23; first compound 158.11 µM) was 0.199. The relative viability (COR-L23; first compound 500 µM) was 0.0157, the relative viability (HCC-44; first compound 5 µM) was 0.15 and the relative viability (HCC-44; first compound 15.81 µM) was 0.195. The relative viability (HCC-44; first compound 50 µM) was 0.185, the relative viability (HCC-44; first compound 158.11 µM) was 0.268 and the relative viability (HCC-44; first compound 500 µM) was 0.248. For the same compound, the relative viability (NCI-H838; first compound 5 µM) was 0.586, the relative viability (NCI-H838; first compound 15.81 µM) was 0.481 and the relative viability (NCI-H838; first compound 50 µM) was 0.558. It also gave a relative viability (NCI-H838; first compound 158.11 µM) of 0.261, a relative viability (NCI-H838; first compound 500 µM) of 0.0688 and a relative viability (NCI-H3122; first compound 5 µM) of 0.387. For the same compound, the relative viability (NCI-H3122; first compound 15.81 µM) was 0.364, the relative viability (NCI-H3122; first compound 50 µM) was 0.339 and the relative viability (NCI-H3122; first compound 158.11 µM) was 0.17. The relative viability (NCI-H3122; first compound 500 µM) was 0.0221, the relative viability (NCI-H2023; first compound 5 µM) was 0.399 and the relative viability (NCI-H2023; first compound 15.81 µM) was 0.37. The relative viability (NCI-H2023; first compound 50 µM) was 0.36, the relative viability (NCI-H2023; first compound 158.11 µM) was 0.0556 and the relative viability (NCI-H2023; first compound 500 µM) was 0.0073. For the same compound, the relative viability (NCI-H1395; first compound 5 µM) was 0.419, the relative viability (NCI-H1395; first compound 15.81 µM) was 0.427 and the relative viability (NCI-H1395; first compound 50 µM) was 0.433. For the same compound, the relative viability (NCI-H1395; first compound 158.11 µM) was 0.457, the relative viability (NCI-H1395; first compound 500 µM) was 0.397 and the relative viability (NCI-H596; first compound 5 µM) was 0.64. For the same compound, the relative viability (NCI-H596; first compound 15.81 µM) was 0.672, the relative viability (NCI-H596; first compound 50 µM) was 0.812 and the relative viability (NCI-H596; first compound 158.11 µM) was 0.668. For the same compound, the relative viability (NCI-H596; first compound 500 µM) was 0.0197, the relative viability (ChaGo-K-1; first compound 5 µM) was 0.47 and the relative viability (ChaGo-K-1; first compound 15.81 µM) was 0.454. It also gave a relative viability (ChaGo-K-1; first compound 50 µM) of 0.491, a relative viability (ChaGo-K-1; first compound 158.11 µM) of 0.331 and a relative viability (ChaGo-K-1; first compound 500 µM) of 0.124. For the same compound, the relative viability (NCI-H650; first compound 5 µM) was 0.508, the relative viability (NCI-H650; first compound 15.81 µM) was 0.412 and the relative viability (NCI-H650; first compound 50 µM) was 0.448. For the same compound, the relative viability (NCI-H650; first compound 158.11 µM) was 0.371, the relative viability (NCI-H650; first compound 500 µM) was 0.333 and the relative viability (HCC-78; first compound 5 µM) was 0.712. The relative viability (HCC-78; first compound 15.81 µM) was 0.647, the relative viability (HCC-78; first compound 50 µM) was 0.787 and the relative viability (HCC-78; first compound 158.11 µM) was 0.591. It also gave a relative viability (HCC-78; first compound 500 µM) of 0.651, a relative viability (SK-MES-1; first compound 5 µM) of 0.642 and a relative viability (SK-MES-1; first compound 15.81 µM) of 0.623. For the same compound, the relative viability (SK-MES-1; first compound 50 µM) was 0.599, the relative viability (SK-MES-1; first compound 158.11 µM) was 0.147 and the relative viability (SK-MES-1; first compound 500 µM) was 0.0887. The relative viability (NCI-H1650; first compound 5 µM) was 0.403, the relative viability (NCI-H1650; first compound 15.81 µM) was 0.408 and the relative viability (NCI-H1650; first compound 50 µM) was 0.366. The relative viability (NCI-H1650; first compound 158.11 µM) was 0.136, the relative viability (NCI-H1650; first compound 500 µM) was 0.0086 and the relative viability (EKVX; first compound 5 µM) was 0.247. It also gave a relative viability (EKVX; first compound 15.81 µM) of 0.223, a relative viability (EKVX; first compound 50 µM) of 0.212 and a relative viability (EKVX; first compound 158.11 µM) of 0.164. The relative viability (EKVX; first compound 500 µM) was 0.213, the relative viability (EPLC-272H; first compound 5 µM) was 0.286 and the relative viability (EPLC-272H; first compound 15.81 µM) was 0.26. For the same compound, the relative viability (EPLC-272H; first compound 50 µM) was 0.309, the relative viability (EPLC-272H; first compound 158.11 µM) was 0.279 and the relative viability (EPLC-272H; first compound 500 µM) was 0.0144. For the same compound, the relative viability (HOP-62; first compound 5 µM) was 0.67, the relative viability (HOP-62; first compound 15.81 µM) was 0.632 and the relative viability (HOP-62; first compound 50 µM) was 0.62. It also gave a relative viability (HOP-62; first compound 158.11 µM) of 0.437, a relative viability (HOP-62; first compound 500 µM) of 0.204 and a relative viability (NCI-H661; first compound 5 µM) of 0.291. The relative viability (NCI-H661; first compound 15.81 µM) was 0.235, the relative viability (NCI-H661; first compound 50 µM) was 0.304 and the relative viability (NCI-H661; first compound 158.11 µM) was 0.214. For the same compound, the relative viability (NCI-H661; first compound 500 µM) was 0.113, the relative viability (NCI-H2087; first compound 5 µM) was 0.387 and the relative viability (NCI-H2087; first compound 15.81 µM) was 0.438. The relative viability (NCI-H2087; first compound 50 µM) was 0.379, the relative viability (NCI-H2087; first compound 158.11 µM) was 0.129 and the relative viability (NCI-H2087; first compound 500 µM) was 0.0066. The relative viability (NCI-H1734; first compound 5 µM) was 0.389, the relative viability (NCI-H1734; first compound 15.81 µM) was 0.322 and the relative viability (NCI-H1734; first compound 50 µM) was 0.348. It also gave a relative viability (NCI-H1734; first compound 158.11 µM) of 0.219, a relative viability (NCI-H1734; first compound 500 µM) of 0.0834 and a relative viability (NCI-H358; first compound 15.81 µM) of 0.297. It also gave a relative viability (NCI-H358; first compound 50 µM) of 0.31, a relative viability (NCI-H358; first compound 158.11 µM) of 0.172 and a relative viability (NCI-H358; first compound 500 µM) of 0.017.
